Laboratory results reported in BigSolDB 2.1.

O=[N+]([O-])c1ccc(Cl)c(Cl)c1
solubility (mole fraction)
Conditions	in cyclohexane	in ethyl acetate	in isopropanol	in n-butanol	in n-heptane	in n-hexane	in n-propanol	in tetrachloromethane
278.15 K	0.0568	0.249	0.0157	0.0389	0.0296	0.0293	0.0506	0.129
280.65 K	0.0632	0.332	0.0199	0.0443	0.0326	0.0363	0.0519	0.182
283.15 K	0.0703	0.405	0.0221	0.0486	0.0424	0.0425	0.0537	0.244
285.65 K	0.0774	0.463	0.0272	0.0542	0.0451	0.0476	0.0582	0.302
288.15 K	0.0865	0.541	0.0318	0.0593	0.0505	0.0518	0.0634	0.362
290.65 K	0.111	0.602	0.036	0.0665	0.0564	0.0572	0.0724	0.435
293.15 K	0.154	0.668	0.0439	0.0735	0.063	0.0634	0.0819	0.511
295.65 K	0.25	0.719	0.0615	0.0819	0.0662	0.0699	0.0935	0.572
298.15 K	0.343	0.778	0.0783	0.0999	0.0729	0.0824	0.115	0.644
300.65 K	0.511	0.822	0.0981	0.118	0.0908	0.115	0.139	0.722
303.15 K	0.751	0.866	0.124	0.136	0.132	0.173	0.173	0.792

O=[N+]([O-])c1cccc(Cl)c1Cl
solubility (mole fraction)
Conditions	in cyclohexane	in ethyl acetate	in isopropanol	in n-butanol	in n-heptane	in n-hexane	in n-propanol	in tetrachloromethane
278.15 K	0.0137	0.212	0.00992	0.0254	0.00633	0.00535	0.0222	0.0619
280.65 K	0.0156	0.269	0.0116	0.0331	0.00962	0.00888	0.0247	0.0811
283.15 K	0.0184	0.331	0.0148	0.0401	0.0128	0.0112	0.0275	0.097
285.65 K	0.0199	0.388	0.0169	0.0453	0.0146	0.0134	0.0295	0.11
288.15 K	0.0212	0.435	0.0199	0.0501	0.017	0.015	0.0318	0.12
290.65 K	0.0266	0.486	0.0243	0.0527	0.0212	0.0172	0.035	0.13
293.15 K	0.0317	0.521	0.0286	0.0563	0.0251	0.0214	0.0387	0.15
295.65 K	0.0377	0.569	0.0336	0.0589	0.0276	0.0231	0.0421	0.194
298.15 K	0.0421	0.592	0.0394	0.0614	0.0322	0.0245	0.0456	0.241
300.65 K	0.0474	0.645	0.0452	0.0645	0.0345	0.0277	0.0511	0.312
303.15 K	0.0549	0.682	0.05	0.0679	0.038	0.031	0.0575	0.38
